For experiment [1], the system named is platelet aggregation induced by PAF. The experiment can be described thus: Anti-PAF activity: inhibition of platelet aggregation induced by PAF in platelet rich plasma. The class given is cell-based, rabbit. The conditions noted are these: Oryctolagus cuniculus, PAF 10 nM, test compound concentration 30 μM, read-out: Inhibitory rate. Here is the method: Anti-PAF activity of purine derivatives of the present invention was evaluated in the inhibition of platelet aggregation induced by PAF (platelet activation factor).
In the present evaluation, blood was drawn from rabbit and 9 volumes of the blood was added with 1 volume of 3.8% sodium citrate solution, centrifuged at 2,000 rpm for 3 min. to give platelet rich plasma (PRP). In a platelet aggregation determination apparatus, 200 μl of the PRP solution and 25 μl of a solution prepared from a predetermined amount of the test compound were mixed and incubated for 2 min. The incubated mixture was added with 25 μl of a solution containing a predetermined amount of PAF to cause platelet aggregation induced by PAF in the test solution. A concentration of PAF was 10 nM in the test solution. The inhibitory rate against platelet aggregation induced by PAF was calculated from the changes of transmission accompanied by the platelet aggregation.
Various concentrations of the test compounds in the test solution were selected to investigate the relationship between the concentration and the inhibitory rate for the evaluation of inhibitory rate of platelet aggregation induced by PAF. […] The inhibitory rate for the positive control compound, CV-3988 (rac-3-(N-n-octadecylcarbamoyl)-2-methoxypropyl-2-thiazolium ethyl phosphate) is also shown in Table 4.

The next experiment concerns endotoxin induced death. The experiment can be described thus: Activity for the endotoxin (LPS) induced death in mice. The class given is in vivo, male ICR mice. The conditions noted are these: for Survival rate: oral twice (30 min before and 8 hrs after LPS 15 mg/kg i.p.), within 4 days, control 50%. Here is the method:
(Activity for the endotoxin induced death) Activity of purine derivatives of the present invention for endothelial cell damage by endotoxin was evaluated by the following method.
In the present method of evaluation, endotoxin caused endothelial cell damage was induced by intraperitoneal administration of LPS (E. coli 055:B5) to male ICR mice. The body weight of test mice was determined beforehand and a dose of 15 mg/kg (body weight) of LPS was predetermined. After administration of LPS, the difference between the number of dead mice induced by endotoxin within 4 days and the total number of mice was divided by the total number of mice to give the survival rate. The dose per body weight of test compound was predetermined and orally administered at 30 min. before induction (LPS administration) and at 8 hrs. after the induction, twice in total. The test compounds were suspended in 0.5% CMC--Na aqueous solution.
Various doses of the test compounds per body weight were selected to investigate the relationship between the dose and survival rate for the evaluation of inhibitory effect against endotoxin induced death. […] While, control group was given the same dose of 0.5% CMC--Na aqueous solution only. […] That is, the inhibitory effect of the compound of the present invention against endotoxin induced death was clearly observed.

A short description of experiment [2]: Scavenging of active oxygen / inhibitory effect against lipid peroxidation (oxidation of linolenic acid to conjugated diene by hydroxy radical, Fenton reaction). The class given is biochemical. The conditions noted are these: linolenic acid 1.0 mM, absorbance at 234 nm. As to the method: The inhibitory effect against oxidation of linolenic acid to conjugated diene due to hydroxy radical (. OH) formed by Fenton reaction was determined according to the method of Kharasch et al. (see J. Biol. Chem., 2.60, 10,645 (1985)). A predetermined concentration of FeCl2 solution was added to a mixture of water and DMSO containing predetermined amount of linolenic acid, NaCl, H2 O2, Lubrol and the rest compound to start the reaction. […] Then, the changes of absorbance at 234 nm due to the formation of conjugated diene in the reaction solutions were determined periodically. The inhibitory rate (%) was estimated from the differences between the test solutions and corresponding solutions without the test compound. When the difference of said reaction rate was 0 (zero), then the inhibitory rate was made 0%, and when the reaction rate was 0 (zero), then the inhibitory rate was made 100%.
The inhibitory rate was estimated for various concentrations of said test compounds and the 50%-inhibitory concentration (IC50) was regressively calculated. The preventive effect against lipid peroxidation was evaluated using IC50.

Experiment [3] has as its system TXA2 synthesis (crude TXA2 synthetase). The experiment can be described thus: Inhibition of TXA2 synthesis (crude TXA2 synthetase, labeled arachidonic acid, RIA). Particulars: for IC50: TXA2 formation, 37° C., 10 min. The class given is biochemical, human. Here is the method: Inhibitory effect against TXA2 synthesis was evaluated by the method shown below determining the formation of TXA2 as an arachidonic acid metabolite in the presence of purine derivatives of the present invention.
TXA2 (thromboxane A2) is reported to be synthesized by TXA2 synthetase in arachidonic acid cascade via a cyclic peroxide (PGH2) formed by cyclooxygenase system. Crude TXA2 synthetase was prepared by the following method in the present invention. Blood drawn from healthy volunteer was centrifuged at 200 G for 15 min. and the resulting supernatant was further centrifuged at 2,000 G for 10 min. to give precipitates. The precipitates were homogenized in 0.01M phosphate buffer and centrifuged at 1,000 G for 10 min. to give a supernatant. The resultant supernatant was used as a crude TXA2 synthetase in the following processes. […] The reaction solution was incubated at 37° C. for 10 min. and TXA2 formed in the reaction mixture was determined by RIA method using a commercially available kit (Amersham Co., Ltd., RIA kit). The inhibitory rate was calculated from the difference between the determined amount of formed TXA2 and that carried out in the absence of the test compound. When the difference of formed amount of TXA2 was 0 (zero), then the inhibitory rate was made 0% and when the formation of TXA2 was equal to that of solvent control without TXA2 synthetase, then the inhibitory rate was made 100%.
The inhibitory rate was estimated for various concentrations of said test compounds and the concentration of 50%-inhibition (IC50) was regressively calculated. The inhibitory effect against TXA2 formation was evaluated using IC50.

Experiment [4] has as its system nephrotoxin-induced nephritis. Kind of experiment: Effect on nephrotoxin-induced nephritis (anti-GBM serum) in rats. The class given is in vivo, male SD rats. The conditions noted are these: for Serum parameter BUN / Serum parameter Total cholesterol / Serum parameter triglyceride / Urinary protein One day before induction / Urinary protein Day 5 after induction / Urinary protein Day 3 after induction: oral once daily, means ± S.E.; for Serum parameter BUN: control 27.6 ± 0.9; for Serum parameter Total cholesterol: control 75 ± 3; for Serum parameter triglyceride: control 161 ± 25; for Urinary protein One day before induction: control 12.2 ± 1.1; for Urinary protein Day 5 after induction: control 72.1 ± 25.7; for Urinary protein Day 3 after induction: control 74.1 ± 25.6. As to the method:
Inhibitory effect of purine derivatives of the present invention against nephrotoxin-induced nephritis was evaluated by the following method.
In the present method of evaluation, nephrotoxin-induced nephritis was induced by administration of anti-GBM (glomerular basement membrane) serum to 9-week old male SD rats. The anti-GBM serum was prepared according to a known method (see Kidney and Dialysis (Jin to Toseki) 31, Special Issue, p. 202-206 (1991), Pub. by Tokyo Igakusha Ltd., Tokyo, Japan). Anti-GBM serum was intravenously administered at an induction dose of 0.15 ml/300 g (body weight). The predetermined dose per body weight of the test compound was suspended in 0.5% CMC--Na aqueous solution and orally administered once daily for consecutive 7 days starting from one day before induction (administration of anti-GBM serum). While, control group was given the same dose of 0.5% CMC--Na aqueous solution only. During the administration period of the test compound, urinary protein was measured every 24 hrs. Seven days after the induction, blood was drawn to prepare serum sample by a conventional method, and BUN, total cholesterol and triglyceride were measured.
Various doses of the test compounds per body weight were selected to investigate the relationship between the dose and urinary protein for the evaluation of inhibitory effect against nephrotoxin-induced nephritis.

[5] abbreviates: dose 30 mg/kg, day 7 after induction.
Setting [6] is: dose 100 mg/kg, day 7 after induction, *p < 0.05.

Take `CCCOc1nc(-c2cc(C(C)(C)C)c(O)c(C(C)(C)C)c2)nc2nc[nH]c12` [Example 2, 2-(3,5-di-tert-butyl-4-hydroxyphenyl)-6-n-propoxypurine]: the inhibition at 30 µM in experiment [1] was 57%. The Survival rate amounted to 68% with endotoxin induced death (dose 100 mg/kg) and 75% in the experiment with endotoxin induced death (dose 300 mg/kg). Also, in the experiment with endotoxin induced death (oral, 100 and 300 mg/kg), the “effect on survival / endotoxin induced death (in words)” value is “increase in survival rate with the increase of dose was clearly observed”. Also, the IC50 in experiment [2] turned out to be 3.4 µM; in experiment [3] it was 0.157 µM. The “inhibitory effect against formation of TXA2 (in words)” value in experiment [3] was “remarkable inhibitory effect against formation of TXA2”. For the same molecule, the “Serum parameter BUN” value in experiment [4] (setting [5]) is 26.9 ± 0.8 mg/dL; in experiment [4] (setting [6]), 23.6 ± 1.6 mg/dL. Besides, the “Serum parameter Total cholesterol” value in experiment [4] (setting [5]) was determined as 72 ± 6 mg/dL; in experiment [4] (setting [6]), 66 ± 2 mg/dL. For the same molecule, the Serum parameter triglyceride in experiment [4] (setting [5]) is 125 ± 20 mg/dL; in experiment [4] (dose 100 mg/kg, day 7 after induction, **p < 0.01), 60 ± 4 mg/dL. In addition, the “Urinary protein One day before induction” value in experiment [4] (dose 30 mg/kg) came to 10.5 ± 0.8 mg/day; in experiment [4] (dose 100 mg/kg) it was 12.2 ± 2.5 mg/day. The “Urinary protein Day 5 after induction” value worked out at 52.8 ± 16.7 mg/day in experiment [4] (dose 30 mg/kg) and 14.3 ± 1.0 mg/day in experiment [4] (dose 100 mg/kg, *p < 0.05). The “Urinary protein Day 3 after induction” value stood at 49.0 ± 16.7 mg/day in experiment [4] (dose 30 mg/kg) and 14.5 ± 1.7 mg/day in experiment [4] (dose 100 mg/kg, *p < 0.05). Also, the “inhibitory effect against increase of urinary protein (in words)” value in experiment [4] (oral, 30 and 100 mg/kg) was “dose dependent inhibitory effect against increase of urinary protein”. Besides, the “concentrations of serum BUN, total cholesterol and triglyceride (in words)” value in experiment [4] (oral, 30 and 100 mg/kg, day 7 after induction) is reported as “dose dependent decrease”.

For the molecule `CCCCCCCCOc1nc(-c2cc(C(C)(C)C)c(O)c(C(C)(C)C)c2)nc2nc[nH]c12` [Example 5, 2-(3,5-di-tert-butyl-4-hydroxyphenyl)-6-n-octyloxypurine], in experiment [1], the inhibition at 30 µM is 15%. In experiment [2], this molecule gave an IC50 of 5.4 µM.

Consider `CC(C)(C)c1cc(-c2nc(OCCc3ccccc3)c3[nH]cnc3n2)cc(C(C)(C)C)c1O` [Example 6, 2-(3,5-di-tert-butyl-4-hydroxyphenyl)-6-phenethyloxypurine], for which the inhibition at 30 µM in experiment [1] came out at 35%. Also, the IC50 in experiment [2] worked out at 3.5 µM; in experiment [3], 0.681 µM.

Consider `COc1nc(-c2cc(C(C)(C)C)c(O)c(C(C)(C)C)c2)nc2nc[nH]c12` [Example 1, 2-(3,5-di-tert-butyl-4-hydroxyphenyl)-6-methoxypurine], for which the inhibition at 30 µM in experiment [1] worked out at 46%. The figures for the IC50 in experiment [2] and in experiment [3] were 3.5 µM and 0.963 µM, respectively.

Take `CC(C)(C)c1cc(-c2nc(OCCCCCC(=O)O)c3[nH]cnc3n2)cc(C(C)(C)C)c1O` [Example 9, 6-(5-carboxy-n-pentyloxy)-2-(3,5-di-tert-butyl-4-hydroxyphenyl)purine]: the inhibition at 30 µM in experiment [1] came out at 2%. The IC50 in experiment [2] was determined as 3.6 µM.

Regarding `CC(C)(C)c1cc(-c2nc(OCCCCCCCC(=O)O)c3[nH]cnc3n2)cc(C(C)(C)C)c1O` [Example 10, 6-(7-carboxy-n-heptyloxy)-2-(3,5-di-tert-butyl-4-hydroxyphenyl)purine], in experiment [1], the inhibition at 30 µM was found to be 4%. Further, the IC50 in experiment [2] is 3.7 µM.

Regarding `CCCCCCOc1nc(-c2cc(C(C)(C)C)c(O)c(C(C)(C)C)c2)nc2nc[nH]c12` [Example 4, 2-(3,5-di-tert-butyl-4-hydroxyphenyl)-6-n-hexyloxypurine], the inhibition at 30 µM in experiment [1] was 61%. In addition, the IC50 is 3.7 µM in experiment [2] and 0.942 µM in experiment [3].

Turning to `CC(C)(C)c1cc(-c2nc(OCc3ccc(C(=O)O)cc3)c3[nH]cnc3n2)cc(C(C)(C)C)c1O` [Example 11, 6-(4-carboxybenzyloxy)-2-(3,5-di-tert-butyl-4-hydroxyphenyl)purine], in experiment [1], the inhibition at 30 µM came out at 53%. In experiment [2], the IC50 was 3.9 µM.

For `CC(C)(C)c1cc(-c2nc(O)c3[nH]cnc3n2)cc(C(C)(C)C)c1O` [Example 7, 2-(3,5-di-tert-butyl-4-hydroxyphenyl)-6-hydroxypurine], the inhibition at 30 µM in experiment [1] amounted to 5%. This molecule also gave an IC50 in experiment [2] of 3.4 µM.

On to `CCCCOc1nc(-c2cc(C(C)(C)C)c(O)c(C(C)(C)C)c2)nc2nc[nH]c12` [Example 3, 6-n-butoxy-2-(3,5-di-tert-butyl-4-hydroxyphenyl)purine], for which the inhibition at 30 µM in experiment [1] was determined as 78%. The same molecule returned an IC50 in experiment [2] of 3.5 µM. Further, in experiment [3], the “inhibitory effect against formation of TXA2 (in words)” value is reported as “remarkable inhibitory effect against formation of TXA2” and the midpoint of inhibition, the IC50, lay at 0.174 µM.

`CC(C)(C)c1cc(-c2nc(OCCCC(=O)O)c3[nH]cnc3n2)cc(C(C)(C)C)c1O` [Example 8, 6-(3-carboxy-n-propoxy)-2-(3,5-di-tert-butyl-4-hydroxyphenyl)purine]: the inhibition at 30 µM in experiment [1] was found to be 5%. The concentration for half-maximal inhibition (IC50) in experiment [2] was found to be 4 µM.

For the origin of these results see patent publication US5602140A, “Purine derivatives and suppressants for inflammatory diseases” (Japan Energy Corporation, priority 1994, dated 1997).
